In brackets after ≈: the same amount, converted by molar mass.
Columns and labels:
Format in all cases: functional
Bacillus subtilis [1] = assay: Antibacterial activity against Bacillus subtilis ATCC 6633 at 140 ug/disk after 18 to 24 hr by disk diffusion method; details: read-out: DIZ
Candida albicans [2] = assay: Antifungal activity against Candida albicans ATCC 90028 at 140 ug/disk after 18 to 24 hr by disk diffusion method; details: read-out: DIZ
Bacillus cereus [3] = assay: Antibacterial activity against Bacillus cereus ATCC 11778 after 18 to 24 hr by broth microdilution method
[4] = test system: Staphylococcus epidermidis; assay: Antibacterial activity against Staphylococcus epidermidis ATCC 12228 at 140 ug/disk after 18 to 24 hr by disk diffusion method; details: read-out: DIZ
Enterococcus faecalis [5] = assay: Antibacterial activity against Enterococcus faecalis ATCC 29212 after 18 to 24 hr by broth microdilution method
Escherichia coli [6] = assay: Antibacterial activity against Escherichia coli ATCC 25922 after 18 to 24 hr by broth microdilution method
Staphylococcus aureus [7] = assay: Antibacterial activity against Staphylococcus aureus ATCC 25923 after 18 to 24 hr by broth microdilution method
Klebsiella pneumoniae [8] = assay: Antibacterial activity against Klebsiella pneumoniae ATCC 13883 after 18 to 24 hr by broth microdilution method
Pseudomonas aeruginosa [9] = assay: Antibacterial activity against Pseudomonas aeruginosa ATCC 27853 at 140 ug/disk after 18 to 24 hr by disk diffusion method; details: read-out: DIZ
Bacillus subtilis [10] = assay: Antibacterial activity against Bacillus subtilis ATCC 6633 after 18 to 24 hr by broth microdilution method
Bacillus cereus [11] = assay: Antibacterial activity against Bacillus cereus ATCC 11778 at 140 ug/disk after 18 to 24 hr by disk diffusion method; details: read-out: DIZ
Escherichia coli [12] = assay: Antibacterial activity against Escherichia coli ATCC 25922 at 140 ug/disk after 18 to 24 hr by disk diffusion method; details: read-out: DIZ
Pseudomonas fluorescens [13] = assay: Antibacterial activity against Pseudomonas fluorescens ATCC 49838 at 140 ug/disk after 18 to 24 hr by disk diffusion method; details: read-out: DIZ
Enterococcus faecalis [14] = assay: Antibacterial activity against Enterococcus faecalis ATCC 29212 at 140 ug/disk after 18 to 24 hr by disk diffusion method; details: read-out: DIZ
[15] = test system: Staphylococcus epidermidis; assay: Antibacterial activity against Staphylococcus epidermidis ATCC 12228 after 18 to 24 hr by broth microdilution method
Pseudomonas fluorescens [16] = assay: Antibacterial activity against Pseudomonas fluorescens ATCC 49838 after 18 to 24 hr by broth microdilution method
Klebsiella pneumoniae [17] = assay: Antibacterial activity against Klebsiella pneumoniae ATCC 13883 at 140 ug/disk after 18 to 24 hr by disk diffusion method; details: read-out: DIZ
Candida albicans [18] = assay: Antifungal activity against Candida albicans ATCC 90028 after 18 to 24 hr by broth microdilution method
Pseudomonas aeruginosa [19] = assay: Antibacterial activity against Pseudomonas aeruginosa ATCC 27853 after 18 to 24 hr by broth microdilution method
Klebsiella aerogenes [20] = assay: Antibacterial activity against Enterobacter aerogenes ATCC 13048 at 140 ug/disk after 18 to 24 hr by disk diffusion method; details: read-out: DIZ
Staphylococcus aureus [21] = assay: Antibacterial activity against Staphylococcus aureus ATCC 25923 at 140 ug/disc after 18 to 24 hr by disk diffusion method; details: read-out: DIZ
Klebsiella aerogenes [22] = assay: Antibacterial activity against Enterobacter aerogenes ATCC 13048 after 18 to 24 hr by broth microdilution method
[23] = test system: Staphylococcus epidermidis; assay: Antibacterial activity against Staphylococcus epidermidis ATCC 12228 at 30 ug/disk after 18 to 24 hr by disk diffusion method; details: read-out: DIZ
Pseudomonas fluorescens [24] = assay: Antibacterial activity against Pseudomonas fluorescens ATCC 49838 at 30 ug/disk after 18 to 24 hr by disk diffusion method; details: read-out: DIZ
Bacillus cereus [25] = assay: Antibacterial activity against Bacillus cereus ATCC 11778 at 30 ug/disk after 18 to 24 hr by disk diffusion method; details: read-out: DIZ
Klebsiella pneumoniae [26] = assay: Antibacterial activity against Klebsiella pneumoniae ATCC 13883 at 30 ug/disk after 18 to 24 hr by disk diffusion method; details: read-out: DIZ
Enterococcus faecalis [27] = assay: Antibacterial activity against Enterococcus faecalis ATCC 29212 at 30 ug/disk after 18 to 24 hr by disk diffusion method; details: read-out: DIZ
Staphylococcus aureus [28] = assay: Antibacterial activity against Staphylococcus aureus ATCC 25923 at 30 ug/disk after 18 to 24 hr by disk diffusion method; details: read-out: DIZ
Candida albicans [29] = assay: Antifungal activity against Candida albicans ATCC 90028 at 30 ug/disk after 18 to 24 hr by disk diffusion method; details: read-out: DIZ
Bacillus subtilis [30] = assay: Antibacterial activity against Bacillus subtilis ATCC 6633 at 30 ug/disk after 18 to 24 hr by disk diffusion method; details: read-out: DIZ
Pseudomonas aeruginosa [31] = assay: Antibacterial activity against Pseudomonas aeruginosa ATCC 27853 at 30 ug/disk after 18 to 24 hr by disk diffusion method; details: read-out: DIZ
Klebsiella aerogenes [32] = assay: Antibacterial activity against Enterobacter aerogenes ATCC 13048 at 30 ug/disk after 18 to 24 hr by disk diffusion method; details: read-out: DIZ
Escherichia coli [33] = assay: Antibacterial activity against Escherichia coli ATCC 25922 at 30 ug/disk after 18 to 24 hr by disk diffusion method; details: read-out: DIZ

MIC (Bacillus cereus [3]) [µg/mL] | MIC (Enterococcus faecalis [5]) [µg/mL] | MIC (Escherichia coli [6]) [µg/mL] | MIC (Staphylococcus aureus [7]) [µg/mL] | MIC (Klebsiella pneumoniae [8]) [µg/mL] | MIC (Bacillus subtilis [10]) [µg/mL] | MIC [15] [µg/mL] | MIC (Pseudomonas fluorescens [16]) [µg/mL] | MIC (Candida albicans [18]) [µg/mL] | MIC (Pseudomonas aeruginosa [19]) [µg/mL] | MIC (Klebsiella aerogenes [22]) [µg/mL] | SMILES | zone of inhibition at 140 µg/disc (Bacillus subtilis [1]) [mm] | zone of inhibition at 140 µg/disc (Candida albicans [2]) [mm] | zone of inhibition at 140 µg/disc [4] [mm] | zone of inhibition at 140 µg/disc (Pseudomonas aeruginosa [9]) [mm] | zone of inhibition at 140 µg/disc (Bacillus cereus [11]) [mm] | zone of inhibition at 140 µg/disc (Escherichia coli [12]) [mm] | zone of inhibition at 140 µg/disc (Pseudomonas fluorescens [13]) [mm] | zone of inhibition at 140 µg/disc (Enterococcus faecalis [14]) [mm] | zone of inhibition at 140 µg/disc (Klebsiella pneumoniae [17]) [mm] | other results
250 (≈ 734 µM) | 500 (≈ 1470 µM) | 500 (≈ 1470 µM) | 500 (≈ 1470 µM) | 250 (≈ 734 µM) | 250 (≈ 734 µM) | 500 (≈ 1470 µM) | 250 (≈ 734 µM) | 500 (≈ 1470 µM) | 250 (≈ 734 µM) | 500 (≈ 1470 µM) | CN(/N=C/c1c(O)ccc2ccccc12)S(=O)(=O)c1ccccc1 | 28 | 16 | 16 | 25 | 26 | 17 | 26 | 17 | 23 | zone of inhibition at 140 µg/disc (Klebsiella aerogenes [20]): 18 mm; zone of inhibition at 140 µg/disc (Staphylococcus aureus [21]): 19 mm
125 (≈ 671 µM) | 250 (≈ 1340 µM) | 125 (≈ 671 µM) | 125 (≈ 671 µM) | 125 (≈ 671 µM) | 125 (≈ 671 µM) | 125 (≈ 671 µM) | 62.5 (≈ 336 µM) | > 2000 | 62.5 (≈ 336 µM) | 125 (≈ 671 µM) | CN(N)S(=O)(=O)c1ccccc1 | 16 | 0 | 14 | 19 | 15 | 18 | 22 | 15 | 17 | zone of inhibition at 140 µg/disc (Klebsiella aerogenes [20]): 16 mm; zone of inhibition at 140 µg/disc (Staphylococcus aureus [21]): 19 mm

SMILES | MIC (Bacillus cereus [3]) [µg/mL] | MIC (Enterococcus faecalis [5]) [µg/mL] | MIC (Escherichia coli [6]) [µg/mL] | MIC (Staphylococcus aureus [7]) [µg/mL] | MIC (Klebsiella pneumoniae [8]) [µg/mL] | MIC (Bacillus subtilis [10]) [µg/mL] | MIC [15] [µg/mL] | MIC (Pseudomonas fluorescens [16]) [µg/mL] | MIC (Candida albicans [18]) [µg/mL] | MIC (Pseudomonas aeruginosa [19]) [µg/mL] | MIC (Klebsiella aerogenes [22]) [µg/mL] | zone of inhibition at 140 µg/disc (Bacillus subtilis [1]) [mm] | zone of inhibition at 140 µg/disc (Candida albicans [2]) [mm] | zone of inhibition at 140 µg/disc [4] [mm] | zone of inhibition at 140 µg/disc (Pseudomonas aeruginosa [9]) [mm] | zone of inhibition at 140 µg/disc (Bacillus cereus [11]) [mm] | zone of inhibition at 140 µg/disc (Escherichia coli [12]) [mm] | zone of inhibition at 140 µg/disc (Pseudomonas fluorescens [13]) [mm] | zone of inhibition at 140 µg/disc (Enterococcus faecalis [14]) [mm] | zone of inhibition at 140 µg/disc (Klebsiella pneumoniae [17]) [mm] | other results
COc1cc(Cc2cnc(N)nc2N)cc(OC)c1OC [TRIMETHOPRIM] | – | 0.5 (≈ 1.72 µM) | – | 1 (≈ 3.44 µM) | 1 (≈ 3.44 µM) | 1 (≈ 3.44 µM) | – | 1 (≈ 3.44 µM) | – | 1 (≈ 3.44 µM) | 1 (≈ 3.44 µM) | – | – | – | – | – | – | – | – | – | zone of inhibition at 30 µg/disc [23]: 29 mm; zone of inhibition at 30 µg/disc (Pseudomonas fluorescens [24]): 0 mm; zone of inhibition at 30 µg/disc (Bacillus cereus [25]): 0 mm; zone of inhibition at 30 µg/disc (Klebsiella pneumoniae [26]): 0 mm; zone of inhibition at 30 µg/disc (Enterococcus faecalis [27]): 27 mm; zone of inhibition at 30 µg/disc (Staphylococcus aureus [28]): 37 mm; zone of inhibition at 30 µg/disc (Candida albicans [29]): 0 mm; zone of inhibition at 30 µg/disc (Bacillus subtilis [30]): 20 mm; zone of inhibition at 30 µg/disc (Pseudomonas aeruginosa [31]): 31 mm; zone of inhibition at 30 µg/disc (Klebsiella aerogenes [32]): 28 mm; zone of inhibition at 30 µg/disc (Escherichia coli [33]): 0 mm
